Laboratory results as given in patent US20230331690A1, “THC DERIVATIVES, ORAL DOSAGE FORMS COMPRISING SAME, USES THEREOF FOR TREATING DISEASES AND DISORDERS AND SYNTHESIS THEREOF” (BAR-ILAN UNIVERSITY, priority 2020, published 2023).

Legend:
[1] = Persistence over time, brain samples postmortem (Example 18); assay type: in vivo, mice; conditions: 8 mg/kg administered, died at 6 h; number in brackets = mice with a value
Procedure: (§1) Blood samples from each mouse were collected at each time point for the pharmacokinetics tests. For 6 h after administrating of all tested drugs, and after testing their WRL on the hot plate, half the mice (n=3) of each group were sacrificed, and the liver and brain of each animal were taken for pharmacokinetics tests. From the remaining mice, blood samples were acquired at 12 h after administration for pharmacokinetics tests. At 24 h after drug administration, and after checking the WRL again, second half of each group of mice were sacrificed, and the liver and brain of each animal were taken for pharmacokinetics tests.
(§2) All the results of the brain and liver samples, which were taken postmortem 6 h or 24 h after administration (n=3) are summarized in Tables 12-13.

[2] = Pharmacokinetics, liver samples (Example 17); assay type: in vivo, mice; conditions: label = analyte; for Component in the liver, Average: n=3
[3] = Persistence over time, liver samples postmortem (Example 18); assay type: in vivo, mice
Procedure: as §1, §2

[4] = Pharmacokinetics, blood samples (Example 17); conditions: 0.5 h after i.p. injection of THC or THC-d5, label = analyte; for Component in the blood, Average: n=6 (THC-d5 n=5)
Procedure: The pharmacokinetics of 9-CD3-(8-D2)-THC compared to natural THC was evaluated using both intraperitoneal i.p. injection and an oral gavage administration for each material. The mice were divided into four groups containing 6 mice (24 mice total). For each group of mice, a blood sample was withdrawn at baseline (t=0), and half-hour intervals (t=0.5, 2 and 5 h) after administration of the drug. Three mice, half of each group, were euthanized with CO2 after 5 h and their organs (brain and liver) were collected. From the second half of each group, another blood sample was withdrawn 24 h after administration, and then these animals were euthanized and the brain and liver were collected for analysis.

[5] = Persistence over time, blood samples (Example 18); assay type: in vivo, mice; conditions: label = analyte
Procedure: as §1

[6] = 5 h after oral gavage administration of THC or THC-d5
[7] = 24 h after i.p. injection of THC or THC-d5
[8] = 2 mg/kg administered, died at 6 h
[9] = 4 mg/kg administered, died at 6 h
[10] = 8 mg/kg administered, died at 6 h
[11] = 4 mg/kg administration of THC or THC-d5, Time 0.5 h
[12] = 4 mg/kg administration, Time 3 h
[13] = 8 mg/kg administration of THC or THC-d5, Time 0.5 h
[14] = 8 mg/kg administration, Time 3 h

CCCCCc1cc(O)c2c(c1)OC(C)(C)[C@@H]1CCC(C(=O)O)=C[C@@H]21 [11-COOH-THC, 11-nor-9-carboxy-THC]
Average results for 3 mice - brain samples [1]: 2.04 (1) ng/g | Component in the liver, mouse 1 [2, 6]: 38.89 ng/mL | Component in the liver, mouse 2 [2, 6]: 33.82 ng/mL | Component in the liver, mouse 3 [2, 6]: 25.34 ng/mL | Component in the liver, Average [2, 6]: 32.68 ng/mL | Component in the liver, mouse 3 [2, 7]: 1.49 ng/mL | Average results for 3 mice (Table 13, liver) [3, 8]: 3.83 ng/g | Average results for 3 mice (Table 13, liver) [3, 9]: 46.06 ng/g | Average results for 3 mice (Table 13, liver) ([3]; 4 mg/kg administered, died at 24 h, number in brackets = mice with a value): 2.89 (1) ng/g | Average results for 3 mice (Table 13, liver) [3, 10]: 60.95 ng/g | Component in the blood, mouse 1 [4]: 30.26 ng/mL | Component in the blood, mouse 2 [4]: 22.27 ng/mL | Component in the blood, mouse 3 [4]: 20.76 ng/mL | Component in the blood, mouse 4 [4]: 32.18 ng/mL | Component in the blood, mouse 5 [4]: 25.30 ng/mL | Component in the blood, mouse 6 [4]: 19.81 ng/mL | Component in the blood, Average [4]: 25.10 ng/mL | Average results, blood samples [5, 11]: 11.87 ng/mL | Average results, blood samples [5, 12]: 1.39 (4/4) ng/mL | Average results, blood samples ([5]; 4 mg/kg administration, Time 6 h): 0.41 (2/2) ng/mL | Average results, blood samples [5, 13]: 15.85 ng/mL | Average results, blood samples [5, 14]: 3.44 ng/mL | Average results, blood samples ([5]; 8 mg/kg administration, Time 6 h): 3.57 ng/mL | Average results, blood samples ([5]; 8 mg/kg administration, Time 12 h (3 mice)): 1.89 ng/mL

CCCCCc1cc(O)c2c(c1)OC(C)(C)[C@@H]1CCC(CO)=C[C@@H]21 [11-OH-THC]
Average results for 3 mice - brain samples [1]: 5.2 (2) ng/g | Component in the liver, mouse 1 [2, 6]: 6.56 ng/mL | Component in the liver, mouse 2 [2, 6]: 23.90 ng/mL | Component in the liver, mouse 3 [2, 6]: 2.83 ng/mL | Component in the liver, Average [2, 6]: 11.10 ng/mL | Component in the liver, mouse 1 [2, 7]: 0.37 ng/mL | Component in the liver, mouse 2 [2, 7]: 3.12 ng/mL | Component in the liver, mouse 3 [2, 7]: 1.46 ng/mL | Average results for 3 mice (Table 13, liver) [3, 8]: 8.76 ng/g | Average results for 3 mice (Table 13, liver) [3, 9]: 41.89 ng/g | Average results for 3 mice (Table 13, liver) [3, 10]: 22.94 ng/g | Average results for 3 mice (Table 13, liver) ([3]; 8 mg/kg administered, died at 24 h, number in brackets = mice with a value): 5.57 (1) ng/g | Component in the blood, mouse 1 [4]: 2.40 ng/mL | Component in the blood, mouse 2 [4]: 2.44 ng/mL | Component in the blood, mouse 3 [4]: 2.10 ng/mL | Component in the blood, mouse 4 [4]: 3.43 ng/mL | Component in the blood, mouse 5 [4]: 2.27 ng/mL | Component in the blood, mouse 6 [4]: 2.37 ng/mL | Component in the blood, Average [4]: 2.50 ng/mL | Average results, blood samples [5, 11]: 1.54 ng/mL | Average results, blood samples [5, 12]: 0.18 (2/2) ng/mL | Average results, blood samples [5, 13]: 1.96 ng/mL | Average results, blood samples [5, 14]: 0.44 ng/mL
